Results as given in PubChem BioAssay (NCI).
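In this assay, cells in 96-well plates receive the compound at five concentrations for 48 hours. Endpoints are linearly interpolated between the surrounding concentrations. GI50 marks 50% less growth. TGI marks complete inhibition of growth.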

Columns and labels:
Assay in all cases: growth of human tumour cells (NCI), 48 h
[1] = test system: XF 498 CNS
[2] = test system: SNB-78 CNS
[3] = test system: DLD-1 colon
[4] = test system: HOP-18 NSCLC
[5] = test system: M19-MEL melanoma
[6] = test system: LXFL 529 NSCLC
[7] = test system: BT-549 breast
[8] = test system: MDA-MB-435
[9] = test system: DU-145 prostate
[10] = test system: MDA-MB-231 breast
[11] = test system: PC-3 prostate
[12] = test system: T-47D breast
[13] = test system: MDA-N

Structure (SMILES) | TGI [2] | TGI [3] | TGI [4] | TGI [5] | TGI [6] | TGI [7] | TGI [8] | TGI [9] | TGI [10] | TGI [11] | TGI [12] | TGI [13] | also measured
CSc1nc2c(ncn2C2OCC(O)C(O)C2O)c(=O)n1C (centres undefined) | > 100 µM | > 100 µM | > 100 µM | > 100 µM |  |  |  |  |  |  |  |  | TGI [1]: > 100 µM
O=C(Nc1cccc2c1[nH]c1c(-c3ccccc3)nccc12)c1ccccc1[N+](=O)[O-] | > 100 µM |  | > 100 µM |  | > 100 µM |  |  |  |  |  |  |  | 
CN1CCN(Cc2ccc(NC(=O)c3cccc(C#Cc4cnc(N)c5ncccc45)c3F)cc2C(F)(F)F)CC1 |  |  |  |  |  | 11 µM | 1.53 µM | 1.41 µM | 1.75 µM | 9.56 µM | 14.8 µM |  | GI50 [7]: 3.1 µM; GI50 [8]: 0.789 µM; GI50 [9]: 0.614 µM; GI50 [10]: 0.773 µM; GI50 [11]: 2.02 µM; GI50 [12]: 5.78 µM
O=C1C=CC(=O)c2c1ccc1c3ccccc3n(-c3ccccc3[N+](=O)[O-])c21 |  |  |  |  |  | 14.6 µM | 5.6 µM | 18.9 µM | 7.88 µM | 12.4 µM | 5.19 µM | > 21.6 µM | 
COc1ccc2[nH]c3c(C)c4ccnc(NCCCN(C)CCCNc5ccc6ncn7c8ccccc8c(=O)c5c67)c4c(C)c3c2c1 |  |  |  |  |  | 3.99 µM | 4.45 µM | 4.14 µM | 1.2 µM | 4.21 µM | 9.46 µM | 4.29 µM | 
COc1cccc(NC(=O)C(=O)C(C(=O)c2ccccc2F)C2OC(=O)c3ccccc32)c1 (centres undefined) | > 100 µM | > 100 µM |  | > 100 µM | > 100 µM |  |  |  |  |  |  |  | 
COc1cc2c(cc1OC)C(=O)/C(=C/c1cc(OC)c(OC)c(OC)c1)C2 |  |  |  |  |  | > 100 µM | > 100 µM | > 100 µM | > 100 µM | > 100 µM | > 100 µM | > 100 µM | 
O=C1C(Cl)N(c2cccc([N+](=O)[O-])c2)C1c1c[nH]c2ccccc12 (centres undefined) |  |  |  | 42.5 µM | 20.4 µM |  |  |  |  |  |  |  | 
COC1(O)c2cccc(Cl)c2C(=O)N1C1(C(N)=O)CCCCC1 (centres undefined) | > 100 µM | > 100 µM | > 100 µM | > 100 µM |  |  |  |  |  |  |  |  | TGI [1]: > 100 µM
NC12CCC(CC1=O)C2 (centres undefined) |  |  |  |  |  |  | > 100 µM | > 100 µM | > 100 µM | > 100 µM | > 100 µM | > 100 µM | 
O=Cc1ccc(CCl)cc1 | 47.7 µM | 31.4 µM | 37.4 µM | 52.5 µM | 31.4 µM |  |  |  |  |  |  |  | TGI [1]: 34.6 µM
